Experimental data reported in patent US7202280B2, “Methods for the treatment and prevention of pancreatitis and for induction of liver regeneration” (priority 2002, dated 2007).
Values joined by “and” are separate entries in the source; they are usually repeats but may differ in a detail not shown here. Identical values can stand only once.

Experiments:
[1] = test system: SSAT transgenic rats (UKUR30); assay: Pancreatic zinc, SSAT activity and polyamine levels in zinc induced pancreatitis treated with MeSpd; format: in vivo; conditions: single animals
Method: Transgenic UKUR30 female rats (weighting about 200 g) were used for the experiments. Pancreatitis was initiated with zinc 10 mg/kg treatment. Experiments were separated in five different parts (Exp. 1–5). Animals treated with α-MeSPD received 50 mg/kg i.p at the indicated time point(s). The pooled data from all of the experiment is shown in tables 4 A/B/C/D. First histological signs of pancreatic failure were evident within 6 h after the zinc. Pancreatic failure steadily increases until 24 hours when the first animals died. Within 48 hours mortality was almost 70% in control zinc treated rats. […].
(§1) Tables 4 A/B/C/D present the natural course of zinc induced pancreatitis. Histological scoring along with plasma amylase activity is shown as a measure of severity of pancreatitis. Tissue zinc and polyamine levels and SSAT activity were determined to verify the response of each animal to the treatment. No other data than the number of death animals is shown from deceased animals. Transgenic UKUR30 female rats weighting about 200 grams were used for the experiment. Zinc was injected i.p. 10 mg/kg to initiate acute pancreatitis. Animals treated with MeSpd received one 50 mg/kg dosage i.p. at the indicated time point(s). At indicated time points live animals were sacrificed and pancreas was subjected to further analysis. […] Values for polyamines are expressed as pmoles/mg/wet weight. SSAT pmoles/10 min/mg wet weight.

[2] = test system: rats with cerulein-induced pancreatitis; assay: Cerulein-induced pancreatitis; format: in vivo, rat
Method: FIG. 7 Effect of pancreatic-associated edema by methylspermidine in rats with cerulein-induced pancreatitis. The animals received cerulein 24 h before sacrifice with or without methylspermidine (50 mg/kg) as a single dose 4 h before cerulein. Three to five animals in each group. Me-Spd, methylspermidine. Administration of cerulein induces a non-necrotizing pancreatitis in rodents. Cerulein-induced pancreatitis is characterized by a pronounced increase in plasma/serum amylase activity.

[3] = test system: SSAT transgenic rats (UKUR30); assay: Treatment of zinc induced acute pancreatitis in SSAT transgenic rats: survival and severity (histology, plasma amylase, mortality); format: in vivo, rat; parameters: key to Edema: 0 (absent); 1 (minimal); 4 (maximal); conditions: for Edema / Necr. / P-amyl: single animals
Method: Formalin-fixed pancreatic specimens were embedded in paraffin, cut into 5-μm-thick slices, and stained with hematoxylin/eosin. The stained sections were coded and scored by the participating gastroenterologist (K.-H. H.) according to the method of Niederau et al. (Niederau, C., Liddle, R. A., Ferrell, L. D., and Grendell, J. H. (1986) J. Clin. Invest. 78, 1056–1063).
Transgenic UKUR30 female rats (weighting about 200 g) were used for the experiments. Pancreatitis was initiated with zinc 10 mg/kg treatment. Experiments were separated in five different parts (Exp. 1–5). Animals treated with α-MeSPD received 50 mg/kg i.p at the indicated time point(s). The pooled data from all of the experiment is shown in tables 4 A/B/C/D. First histological signs of pancreatic failure were evident within 6 h after the zinc. Pancreatic failure steadily increases until 24 hours when the first animals died. Within 48 hours mortality was almost 70% in control zinc treated rats.
as §1

[4] = Zn 24 h, MeSpd 50 mg/kg i.p. at 3 h/8 h
[5] = Zn 24 h, MeSpd 50 mg/kg i.p. at 6 h/12 h
[6] = Zn 24 h, MeSpd 50 mg/kg i.p. at 12 h
[7] = Zn 48 h, MeSpd 50 mg/kg i.p. at 3 h/8 h
[8] = Zn 48 h, MeSpd 50 mg/kg i.p. at 4 h/24 h
[9] = Zn 48 h, MeSpd 50 mg/kg i.p. at 12 h/24 h

For `CC(N)CCNCCCCN` (stereo not drawn) [α-methylspermidine, 1-methylspermidine], the “MeSpd (pancreas)” value [1, 4] was 1943 pmoles/mg/wet weight and 1425 pmoles/mg/wet weight and 907 pmoles/mg/wet weight and 0 pmoles/mg/wet weight, the “N^1AcSpd (pancreas)” value [1, 4] was 54 pmoles/mg/wet weight and 58 pmoles/mg/wet weight and 31 pmoles/mg/wet weight and 0 pmoles/mg/wet weight and the “PU (pancreas)” value [1, 4] was 3231 pmoles/mg/wet weight and 2820 pmoles/mg/wet weight and 2269 pmoles/mg/wet weight and 2159 pmoles/mg/wet weight. The “SPD (pancreas)” value [1, 4] was 1165 pmoles/mg/wet weight and 265 pmoles/mg/wet weight and 119 pmoles/mg/wet weight and 3405 pmoles/mg/wet weight, the “SPM (pancreas)” value [1, 4] was 299 pmoles/mg/wet weight and 128 pmoles/mg/wet weight and 69 pmoles/mg/wet weight and 441 pmoles/mg/wet weight and the “SSAT (pancreas)” value [1, 4] was 50 pmoles/10 min/mg wet weight and 91 pmoles/10 min/mg wet weight and 100 pmoles/10 min/mg wet weight and 18 pmoles/10 min/mg wet weight. For the same compound, the “MeSpd (pancreas)” value [1, 5] was 2268 pmoles/mg/wet weight and 3242 pmoles/mg/wet weight and 3098 pmoles/mg/wet weight and 745 pmoles/mg/wet weight and 798 pmoles/mg/wet weight and 954 pmoles/mg/wet weight and 834 pmoles/mg/wet weight and 1993 pmoles/mg/wet weight and 728 pmoles/mg/wet weight, the “N^1AcSpd (pancreas)” value [1, 5] was 113 pmoles/mg/wet weight and 45 pmoles/mg/wet weight and 43 pmoles/mg/wet weight and 66 pmoles/mg/wet weight and 71 pmoles/mg/wet weight and 98 pmoles/mg/wet weight and 134 pmoles/mg/wet weight and 20 pmoles/mg/wet weight and 59 pmoles/mg/wet weight and the “PU (pancreas)” value [1, 5] was 6768 pmoles/mg/wet weight and 6932 pmoles/mg/wet weight and 4915 pmoles/mg/wet weight and 2335 pmoles/mg/wet weight and 1932 pmoles/mg/wet weight and 2401 pmoles/mg/wet weight and 1911 pmoles/mg/wet weight and 3790 pmoles/mg/wet weight and 1935 pmoles/mg/wet weight. The “SPD (pancreas)” value [1, 5] was 478 pmoles/mg/wet weight and 1114 pmoles/mg/wet weight and 1297 pmoles/mg/wet weight and 108 pmoles/mg/wet weight and 96 pmoles/mg/wet weight and 105 pmoles/mg/wet weight and 84 pmoles/mg/wet weight and 1096 pmoles/mg/wet weight and 100 pmoles/mg/wet weight, the “SPM (pancreas)” value [1, 5] was 213 pmoles/mg/wet weight and 431 pmoles/mg/wet weight and 408 pmoles/mg/wet weight and 41 pmoles/mg/wet weight and 54 pmoles/mg/wet weight (2×) and 50 pmoles/mg/wet weight and 276 pmoles/mg/wet weight and 46 pmoles/mg/wet weight and the “SSAT (pancreas)” value [1, 5] was 1403 pmoles/10 min/mg wet weight and 37 pmoles/10 min/mg wet weight and 40 pmoles/10 min/mg wet weight and 10372 pmoles/10 min/mg wet weight and 3866 pmoles/10 min/mg wet weight and 5823 pmoles/10 min/mg wet weight and 6216 pmoles/10 min/mg wet weight and 1024 pmoles/10 min/mg wet weight and 5748 pmoles/10 min/mg wet weight. The “MeSpd (pancreas)” value [1, 6] was 1113 pmoles/mg/wet weight and 371 pmoles/mg/wet weight and 333 pmoles/mg/wet weight and 334 pmoles/mg/wet weight, the “N^1AcSpd (pancreas)” value [1, 6] was 16 pmoles/mg/wet weight and 57 pmoles/mg/wet weight and 65 pmoles/mg/wet weight and 42 pmoles/mg/wet weight and the “PU (pancreas)” value [1, 6] was 5328 pmoles/mg/wet weight and 3361 pmoles/mg/wet weight and 2782 pmoles/mg/wet weight and 3116 pmoles/mg/wet weight. For the same compound, the “SPD (pancreas)” value [1, 6] was 1360 pmoles/mg/wet weight and 124 pmoles/mg/wet weight and 153 pmoles/mg/wet weight and 126 pmoles/mg/wet weight, the “SPM (pancreas)” value [1, 6] was 479 pmoles/mg/wet weight and 47 pmoles/mg/wet weight and 61 pmoles/mg/wet weight and 45 pmoles/mg/wet weight and the “SSAT (pancreas)” value [1, 6] was 29 pmoles/10 min/mg wet weight and 6855 pmoles/10 min/mg wet weight and 4852 pmoles/10 min/mg wet weight and 6866 pmoles/10 min/mg wet weight. The “MeSpd (pancreas)” value [1, 7] was 646 pmoles/mg/wet weight and 1043 pmoles/mg/wet weight and 768 pmoles/mg/wet weight, the “N^1AcSpd (pancreas)” value [1, 7] was 43 pmoles/mg/wet weight and 21 pmoles/mg/wet weight and 29 pmoles/mg/wet weight and the “PU (pancreas)” value [1, 7] was 1538 pmoles/mg/wet weight and 1268 pmoles/mg/wet weight and 649 pmoles/mg/wet weight. For the same compound, the “SPD (pancreas)” value [1, 7] was 367 pmoles/mg/wet weight and 313 pmoles/mg/wet weight and 148 pmoles/mg/wet weight, the “SPM (pancreas)” value [1, 7] was 119 pmoles/mg/wet weight and 90 pmoles/mg/wet weight and 51 pmoles/mg/wet weight and the “SSAT (pancreas)” value [1, 7] was 92 pmoles/10 min/mg wet weight and 82 pmoles/10 min/mg wet weight and 90 pmoles/10 min/mg wet weight. The “MeSpd (pancreas)” value [1, 8] was 1066 pmoles/mg/wet weight and 2249 pmoles/mg/wet weight and 1415 pmoles/mg/wet weight and 1041 pmoles/mg/wet weight and 1493 pmoles/mg/wet weight, the “N^1AcSpd (pancreas)” value [1, 8] was 0 pmoles/mg/wet weight and the “PU (pancreas)” value [1, 8] was 1522 pmoles/mg/wet weight and 2416 pmoles/mg/wet weight and 1960 pmoles/mg/wet weight and 1744 pmoles/mg/wet weight and 1896 pmoles/mg/wet weight. For the same compound, the “SPD (pancreas)” value [1, 8] was 1344 pmoles/mg/wet weight and 1052 pmoles/mg/wet weight and 1928 pmoles/mg/wet weight and 2533 pmoles/mg/wet weight and 369 pmoles/mg/wet weight, the “SPM (pancreas)” value [1, 8] was 238 pmoles/mg/wet weight and 254 pmoles/mg/wet weight and 339 pmoles/mg/wet weight and 557 pmoles/mg/wet weight and 112 pmoles/mg/wet weight and the “SSAT (pancreas)” value [1, 8] was 10 pmoles/10 min/mg wet weight and 28 pmoles/10 min/mg wet weight and 17 pmoles/10 min/mg wet weight and 8 pmoles/10 min/mg wet weight and 75 pmoles/10 min/mg wet weight. The “MeSpd (pancreas)” value [1, 9] was 452 pmoles/mg/wet weight and 1053 pmoles/mg/wet weight and 560 pmoles/mg/wet weight and 629 pmoles/mg/wet weight, the “N^1AcSpd (pancreas)” value [1, 9] was 70 pmoles/mg/wet weight and 51 pmoles/mg/wet weight and 49 pmoles/mg/wet weight and 42 pmoles/mg/wet weight and the “PU (pancreas)” value [1, 9] was 889 pmoles/mg/wet weight and 7496 pmoles/mg/wet weight and 1078 pmoles/mg/wet weight and 1345 pmoles/mg/wet weight. The “SPD (pancreas)” value [1, 9] was 79 pmoles/mg/wet weight and 1571 pmoles/mg/wet weight and 165 pmoles/mg/wet weight and 456 pmoles/mg/wet weight, the “SPM (pancreas)” value [1, 9] was 35 pmoles/mg/wet weight and 422 pmoles/mg/wet weight and 61 pmoles/mg/wet weight and 141 pmoles/mg/wet weight and the “SSAT (pancreas)” value [1, 9] was 548 pmoles/10 min/mg wet weight and 42 pmoles/10 min/mg wet weight and 4391 pmoles/10 min/mg wet weight and 2001 pmoles/10 min/mg wet weight. For the same compound, the amylase levels ([2]; cerulein-induced pancreatitis) was “does not normalize amylase levels”, the pancreatitis-associated edema ([2]; cerulein, single dose 50 mg/kg) was “reduces the pancreatitis-associated edema” and the Edema [3, 4] was 0 (2×) and 2 (2×). For the same compound, the Necr. [3, 4] was 0 (0, 0–5%) (2×) and 3 (3, 35–50%) and 4 (4, >50%), the P-amyl [3, 4] was 2743 U/l and 20380 U/l and 11420 U/l and 2801 U/l and the Edema [3, 5] was 0 (3×) and 1 (2×) and 2 (2×) and 3 and 4. The Necr. [3, 5] was 0 (0, 0–5%) (4×) and 4 (4, >50%) (4×) and 2 (2, 15–35%), the P-amyl [3, 5] was 2686 U/l and 2153 U/l and 2572 U/l and 30970 U/l and 42250 U/l and 30860 U/l and 28400 U/l and 5110 U/l and 25050 U/l and the Edema [3, 6] was 1 and 2 (2×) and 3. The Necr. [3, 6] was 0 (0, 0–5%) and 4 (4, >50%) (2×) and 3 (3, 35–50%), the P-amyl [3, 6] was 3048 U/l and 17170 U/l and 31310 U/l and 18960 U/l and the Mortality % ([3]; Zn 24 h, MeSpd treatment yes) was 0%. The “Number of death animals” value ([3]; Zn 24 h, MeSpd treatment yes, 17 animals) was 0, the Edema [3, 7] was 3 (2×) and 2 and the Necr. [3, 7] was 4 (4, >50%). The P-amyl [3, 7] was 5867 U/l and 5117 U/l and 29880 U/l, the Edema [3, 8] was 0 (3×) and 1 and 3 and the Necr. [3, 8] was 0 (0, 0–5%) (4×) and 4 (4, >50%). The P-amyl [3, 8] was 1924 U/l and 2740 U/l and 2908 U/l and 2591 U/l and 3943 U/l, the Edema [3, 9] was 3 (2×) and 0 and 2 and the Necr. [3, 9] was 4 (4, >50%) (3×) and 0 (0, 0–5%). The P-amyl [3, 9] was 86840 U/l and 2693 U/l and 36470 U/l and 3382 U/l and the Mortality % ([3]; Zn 48 h, MeSpd treatment yes) was 8%.
